Source: US11986532B2 (Arvinas Operations, Inc., priority 2021, dated 2024)
Counter-ions that a name gives are not always drawn. Like-named read-outs stand apart in the source and are kept apart here.

Target: T1, BCL6 (Homo sapiens, UniProt P41182)
T1 construct: endogenous in cells; host or cells: T47D breast cancer epithelial cells
Experiment: Immunofluorescence protocol for high content imaging of BCL6 (degradation) in T47D cells, 3 days compound treatment
Type: cell-based
Conditions: for DC50: read-out: Mean DC50 (nM)* category; for Dmax: read-out: Mean Dmax (%)** category
Procedure, shortened: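 Remaining BCL6 in breast cancer T47D cells was measured by high-content immunofluorescence imaging after 3 days of treatment with serially diluted compound (top 0.1 or 1 μM). Nuclei were stained with Hoechst and cells with CellMask.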

[1] = T47D cells, 3 days compound treatment

Compound: CNC(=O)COc1cc2cc(Nc3nc(N4CCC(O[C@H]5C[C@H](N6CCC(c7cc(C)c8c(c7F)CN(C7CCC(=O)NC7=O)C8=O)CC6)C5)CC4)ncc3Cl)ccc2n(C(C)C)c1=O (some centres unmarked) [Compound 208, 2-({6-[(5-chloro-2-{4-[(1r,3r)-3-{4-[2-(2,6-dioxopiperidin-3-yl)-4-fluoro-7-methyl-1-oxo-3H-isoindol-5-yl]piperidin-1-yl}cyclobutoxy]piperidin-1-yl}pyrimidin-4-yl)amino]-1-isopropyl-2-oxoquinolin-3-yl}oxy)-N-methylacetamide]
- DC50 [1]: < 10 nM
- Dmax [1]: ≥ 70%

Compound: CNC(=O)COc1cc2cc(Nc3nc(N4CCC(O[C@H]5C[C@H](N6CCC7(CCN(c8ccc9c(c8)CN(C8CCC(=O)NC8=O)C9=O)CC7)C6)C5)CC4)ncc3Cl)ccc2n(C(C)C)c1=O (some centres unmarked) [Compound 363, 2-({6-[(5-chloro-2-{4-[(1r,3r)-3-{8-[2-(2,6-dioxopiperidin-3-yl)-1-oxo-2,3-dihydro-1H-isoindol-5-yl]-2,8-diazaspiro[4.5]decan-2-yl}cyclobutoxy]piperidin-1-yl}pyrimidin-4-yl)amino]-2-oxo-1-(propan-2-yl)-1,2-dihydroquinolin-3-yl}oxy)-N-methylacetamide]
- Mean Dmax (%)** category: A (A >= 70)
- DC50: < 10 nM

Compound: CNC(=O)COc1cc2cc(Nc3nc(N4CCN(C(C)(C)C5CCN(c6cc7c(cc6F)C(=O)N(C6CCC(=O)NC6=O)C7)CC5)CC4)ncc3Cl)ccc2n(C(C)C)c1=O (centres unmarked) [Compound 68, 2-{[6-({5-chloro-2-[4-(2-{1-[2-(2,6-dioxopiperidin-3-yl)-6-fluoro-1-oxo-2,3-dihydro-1H-isoindol-5-yl]piperidin-4-yl}propan-2-yl)piperazin-1-yl]pyrimidin-4-yl}amino)-2-oxo-1-(propan-2-yl)-1,2-dihydroquinolin-3-yl]oxy}-N-methylacetamide]
- DC50 [1]: < 10 nM
- Dmax [1]: 50 to 70%

Compound: CNC(=O)COc1cc2cc(Nc3nc(N4CCC(CN5CC(N6CCN(c7ccc8c(c7)C(=O)N(C7CCC(=O)NC7=O)C8=O)CC6)C5)CC4)ncc3Cl)ccc2n(C(C)C)c1=O (centres unmarked) [Compound 241, 2-({6-[(5-chloro-2-{4-[(3-{4-[2-(2,6-dioxopiperidin-3-yl)-1,3-dioxo-2,3-dihydro-1H-isoindol-5-yl]piperazin-1-yl}azetidin-1-yl)methyl]piperidin-1-yl}pyrimidin-4-yl)amino]-2-oxo-1-(propan-2-yl)-1,2-dihydroquinolin-3-yl}oxy)-N-methylacetamide]
- Dmax (T47D): ≥ 70%
- DC50: 10 to 50 nM

Compound: CNC(=O)COc1cc2cc(Nc3nc(N4CCC(CN5CCC6(CC5)CN(c5cc7c(cc5F)C(=O)N(C5CCC(=O)NC5=O)C7)C6)CC4)ncc3Cl)ccc2n(C(C)C)c1=O (centres unmarked) [Compound 64, 2-{[6-({5-chloro-2-[4-({2-[2-(2,6-dioxopiperidin-3-yl)-6-fluoro-1-oxo-2,3-dihydro-1H-isoindol-5-yl]-2,7-diazaspiro[3.5]nonan-7-yl}methyl)piperidin-1-yl]pyrimidin-4-yl}amino)-2-oxo-1-(propan-2-yl)-1,2-dihydroquinolin-3-yl]oxy}-N-methylacetamide]
- DC50 [1]: < 10 nM
- Dmax [1]: 50 to 70%

Compound: CNC(=O)COc1cc2cc(Nc3nc(N4CCN(C(=O)C5CCC6(CCN(c7ccc8c(c7)CN(C7CCC(=O)NC7=O)C8=O)C6)C5)CC4)ncc3Cl)ccc2n(C(C)C)c1=O (centres unmarked) [Compound 66, 2-[(6-{[5-chloro-2-(4-{2-[2-(2,6-dioxopiperidin-3-yl)-1-oxo-2,3-dihydro-1H-isoindol-5-yl]-2-azaspiro[4.4]nonane-7-carbonyl}piperazin-1-yl)pyrimidin-4-yl]amino}-2-oxo-1-(propan-2-yl)-1,2-dihydroquinolin-3-yl)oxy]-N-methylacetamide]
- DC50 [1]: < 10 nM
- Dmax [1]: < 50%

Compound: CNC(=O)COc1cc2cc(Nc3nc(N4CCN(CC5CCC6(CC5)CN(c5cc(F)cc7c5CN(C5CCC(=O)NC5=O)C7=O)C6)CC4)ncc3Cl)ccc2n(C(C)C)c1=O (centres unmarked) [Compound 315, 2-{[6-({5-chloro-2-[4-({2-[2-(2,6-dioxopiperidin-3-yl)-6-fluoro-1-oxo-2,3-dihydro-1H-isoindol-4-yl]-2-azaspiro[3.5]nonan-7-yl}methyl)piperazin-1-yl]pyrimidin-4-yl}amino)-2-oxo-1-(propan-2-yl)-1,2-dihydroquinolin-3-yl]oxy}-N-methylacetamide]
- Dmax (T47D): 50 to 70%
- DC50: < 10 nM

Compound: CNC(=O)COc1cc2cc(Nc3nc(N4CCC5(CC4)CC(C(C)(C)N4CCC(c6cccc7c6CN(C6CCC(=O)NC6=O)C7=O)CC4)C5)ncc3Cl)ccc2n(C(C)C)c1=O (centres unmarked) [Compound 154, 2-{[6-({5-chloro-2-[2-(2-{4-[2-(2,6-dioxopiperidin-3-yl)-1-oxo-2,3-dihydro-1H-isoindol-4-yl]piperidin-1-yl}propan-2-yl)-7-azaspiro[3.5]nonan-7-yl]pyrimidin-4-yl}amino)-2-oxo-1-(propan-2-yl)-1,2-dihydroquinolin-3-yl]oxy}-N-methylacetamide]
- DC50 [1]: ≥ 100 nM
- Dmax [1]: 50 to 70%

Compound: CNC(=O)COc1cc2cc(Nc3nc(N4CCC(O[C@H]5C[C@H](N6CCC7(CCCN(c8ccc9c(c8)CN(C8CCC(=O)NC8=O)C9=O)C7)C6)C5)CC4)ncc3Cl)ccc2n(C(C)C)c1=O (some centres unmarked) [Compound 354, 2-({6-[(5-chloro-2-{4-[(1r,3r)-3-{7-[2-(2,6-dioxopiperidin-3-yl)-1-oxo-2,3-dihydro-1H-isoindol-5-yl]-2,7-diazaspiro[4.5]decan-2-yl}cyclobutoxy]piperidin-1-yl}pyrimidin-4-yl)amino]-2-oxo-1-(propan-2-yl)-1,2-dihydroquinolin-3-yl}oxy)-N-methylacetamide]
- Dmax (T47D): 50 to 70%
- DC50: < 10 nM

Compound: CNC(=O)COc1cc2cc(Nc3nc(N4CCC(CN5CCC6(CN(c7ccc8c(c7OC)CN(C7CCC(=O)NC7=O)C8=O)C6)C(F)(F)C5)CC4)ncc3Cl)ccc2n(C(C)C)c1=O (centres unmarked) [Compound 352, 2-{[6-({5-chloro-2-[4-({2-[2-(2,6-dioxopiperidin-3-yl)-4-methoxy-1-oxo-2,3-dihydro-1H-isoindol-5-yl]-5,5-difluoro-2,7-diazaspiro [3.5]nonan-7-yl}methyl)piperidin-1-yl]pyrimidin-4-yl}amino)-2-oxo-1-(propan-2-yl)-1,2-dihydroquinolin-3-yl]oxy}-N-methylacetamide]
- Dmax (T47D): < 50%
- DC50: 10 to 50 nM

Compound: CNC(=O)COc1cc2cc(Nc3cc(N4CCC(CN5CCC6(CN(c7ccc8c(c7F)CN(C7CCC(=O)NC7=O)C8=O)C6)C(F)(F)C5)CC4)ncc3Cl)ccc2n(C(C)C)c1=O (centres unmarked) [Compound 237, 2-{[6-({5-chloro-2-[4-({2-[2-(2,6-dioxopiperidin-3-yl)-4-fluoro-1-oxo-2,3-dihydro-1H-isoindol-5-yl]-5,5-difluoro-2,7-diazaspiro[3.5]nonan-7-yl}methyl)piperidin-1-yl]pyridin-4-yl}amino)-2-oxo-1-(propan-2-yl)-1,2-dihydroquinolin-3-yl]oxy}-N-methylacetamide]
- Dmax (T47D): 50 to 70%
- DC50: < 10 nM

Compound: CNC(=O)COc1cc2cc(Nc3nc(N4CCC(O[C@H]5C[C@H](N6CCN(c7ccc8c(c7Cl)CN(C7CCC(=O)NC7=O)C8=O)CC6)C5)CC4)ncc3Cl)ccc2n(C(C)C)c1=O (some centres unmarked) [Compound 181, 2-({6-[(5-chloro-2-{4-[(1r,3r)-3-{4-[4-chloro-2-(2,6-dioxopiperidin-3-yl)-1-oxo-2,3-dihydro-1H-isoindol-5-yl]piperazin-1-yl}cyclobutoxy]piperidin-1-yl}pyrimidin-4-yl)amino]-2-oxo-1-(propan-2-yl)-1,2-dihydroquinolin-3-yl}oxy)-N-methylacetamide]
- DC50 [1]: < 10 nM
- Dmax [1]: ≥ 70%

Compound: CNC(=O)COc1cc2cc(Nc3cc(N4CCC(O[C@H]5C[C@H](N6CCC(c7ccc8c(c7)C(=O)N(C7CCC(=O)NC7=O)C8=O)CC6)C5)CC4)ncc3Cl)ccc2n(C(C)C)c1=O (some centres unmarked) [Compound 243, 2-({6-[(5-chloro-2-{4-[(1r,3r)-3-{4-[2-(2,6-dioxopiperidin-3-yl)-1,3-dioxo-2,3-dihydro-1H-isoindol-5-yl]piperidin-1-yl}cyclobutoxy]piperidin-1-yl}pyridin-4-yl)amino]-2-oxo-1-(propan-2-yl)-1,2-dihydroquinolin-3-yl}oxy)-N-methylacetamide]
- Dmax (T47D): < 50%
- DC50: 10 to 50 nM

Compound: CNC(=O)COc1cc2cc(Nc3nc(N4CCC(OC5CCC6(CC5)CN(c5c(OC)ccc7c5CN(C5CCC(=O)NC5=O)C7=O)C6)CC4)ncc3Cl)ccc2n(C(C)C)c1=O (centres unmarked) [Compound 300, 2-{[6-({5-chloro-2-[4-({2-[2-(2,6-dioxopiperidin-3-yl)-5-methoxy-1-oxo-2,3-dihydro-1H-isoindol-4-yl]-2-azaspiro[3.5]nonan-7-yl}oxy)piperidin-1-yl]pyrimidin-4-yl}amino)-2-oxo-1-(propan-2-yl)-1,2-dihydroquinolin-3-yl]oxy}-N-methylacetamide]
- Dmax (T47D): 50 to 70%
- DC50: < 10 nM

Compound: CNC(=O)COc1cc2cc(Nc3nc(N4CCC(O[C@H]5C[C@H](N6CCN(c7ccc8c(c7F)CN(C7CCC(=O)NC7=O)C8=O)CC6)C5)CC4)ncc3Cl)ccc2n(C(C)C)c1=O (some centres unmarked) [Compound 164, 2-[[6-[[5-chloro-2-[4-[3-[4-[2-(2,6-dioxo-3-piperidyl)-4-fluoro-1-oxo-isoindolin-5-yl]piperazin-1-yl]cyclobutoxy]-1-piperidyl]pyrimidin-4-yl]amino]-1-isopropyl-2-oxo-3-quinolyl]oxy]-N-methyl-acetamide formate]
- DC50 [1]: < 10 nM
- Dmax [1]: ≥ 70%

Compound: CNC(=O)COc1cc2cc(Nc3nc(N4CCC(CN5CC6(CCN(c7ccc8c(c7F)CN(C7CCC(=O)NC7=O)C8=O)CC6)C5)CC4)ncc3Cl)ccc2n(C(C)C)c1=O (centres unmarked) [Compound 87, 2-{[6-({5-chloro-2-[4-({7-[2-(2,6-dioxopiperidin-3-yl)-4-fluoro-1-oxo-2,3-dihydro-1H-isoindol-5-yl]-2,7-diazaspiro[3.5]nonan-2-yl}methyl)piperidin-1-yl]pyrimidin-4-yl}amino)-2-oxo-1-(propan-2-yl)-1,2-dihydroquinolin-3-yl]oxy}-N-methylacetamide]
- DC50 [1]: < 10 nM
- Dmax [1]: 50 to 70%
